{"source": "paper PMC2762729", "about": "(Biochemistry, 2009)", "key": {"saporin-L1 [1]": {"system": "saporin-L1", "conditions": "pH 7.8; cited from earlier work"}, "[2]": {"system": "35-mer synthetic SRL mimic with GAGA tetraloop", "conditions": "cited from earlier work"}, "saporin-L1 [3]": {"molecular_target": "T1, saporin-L1 (Saponaria officinalis, UniProt Q2QEH4)", "T1 sequence (Q2QEH4 22-280 limits assumed)": "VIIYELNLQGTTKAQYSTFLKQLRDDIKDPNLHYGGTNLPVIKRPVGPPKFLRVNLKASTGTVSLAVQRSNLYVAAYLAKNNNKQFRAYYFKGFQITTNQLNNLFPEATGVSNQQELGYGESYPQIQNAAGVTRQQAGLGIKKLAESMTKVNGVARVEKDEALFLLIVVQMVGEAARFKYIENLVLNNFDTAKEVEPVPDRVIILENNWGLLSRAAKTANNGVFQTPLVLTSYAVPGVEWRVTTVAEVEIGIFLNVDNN", "assay": "Competitive inhibition of A-10 RNA"}, "saporin-L1 [4]": {"molecular_target": "T1, saporin-L1", "format": "biochemical", "conditions": "read-out: EC50, rescue of translation; n = 3"}, "saporin-L1 [5]": {"molecular_target": "T1, saporin-L1", "assay": "Competitive inhibition of A-10 RNA", "remark": "listed apart in the source"}, "saporin-L1 [6]": {"system": "saporin-L1", "format": "biochemical, Saponaria officinalis"}, "saporin-L1 [7]": {"system": "saporin-L1", "format": "biochemical, Saponaria officinalis", "remark": "listed apart in the source"}}, "note": "“Also recorded” adds a separate entry of the source. Read-outs that look alike come from different tables or passages of the source.", "data": [{"compound": "poly(A)", "values": [{"measurement": "Km", "setting": "saporin-L1 [1]", "value": "639 ± 32", "unit": "µM"}, {"measurement": "kcat", "setting": "saporin-L1 [1]", "value": "1.02 ± 0.017", "unit": "s⁻¹"}]}, {"compound": "gelonin", "values": [{"measurement": "activity (in words)", "setting": "[2]", "value": "no detectable activity"}]}, {"compound": "Nc1ncnc2c(CN3C[C@H](CO)[C@@H](O)C3)c[nH]c12", "note": "[9-DA, 9-deazaadenine-9-methylene-N-hydroxypyrrolidine (DADMeA)]", "values": [{"measurement": "Ki", "setting": "saporin-L1 [3]", "value": "> 500000", "unit": "nM"}]}, {"compound": "CO[C@@H]1[C@H](OP(=O)(O)OCCCO)[C@@H](COP(=O)(O)O[C@H]2CN(Cc3c[nH]c4c(N)ncnc34)C[C@@H]2COP(=O)(O)OCCCO)O[C@H]1n1cnc2c(=O)[nH]c(N)nc21", "note": "[s3(9-DA)Gs3 2′-OMe]", "values": [{"measurement": "EC50", "setting": "saporin-L1 [4]", "value": 36, "unit": "nM"}, {"measurement": "Ki", "setting": "saporin-L1 [5]", "value": "6.4 ± 1.7", "unit": "nM"}]}, {"compound": "5′-CGCGAGAGCG-3′ [A-10 RNA]", "values": [{"measurement": "Km, fold lower with saporin-L1 than with saporin-S6", "setting": "saporin-L1 [6]", "value": 4, "unit": "fold"}, {"measurement": "Km, fold tighter than poly(A) RNA", "setting": "saporin-L1 [6]", "value": 4.5, "unit": "fold"}, {"measurement": "kcat/Km, fold increased catalytic efficiency over poly(A) RNA", "setting": "saporin-L1 [6]", "value": 45, "unit": "fold"}, {"measurement": "kcat/Km, fold more efficient with saporin-L1 than with saporin-S6", "setting": "saporin-L1 [6]", "value": "4,800 fold"}, {"measurement": "Km", "setting": "saporin-L1 [6]; pH 7.7", "value": "95 ± 7", "unit": "µM"}, {"measurement": "kcat", "setting": "saporin-L1 [6]; pH 7.7", "value": "7.33 ± 0.267", "unit": "s⁻¹"}]}, {"compound": "trichosanthin", "values": [{"measurement": "activity (in words)", "setting": "[2]", "value": "no detectable activity"}]}, {"compound": "Nc1ncnc2c(CN3C[C@H](CO)[C@@H](O)C3)c[nH]c12", "note": "[9-DA, 9-deazaadenine-9-methylene-N-hydroxypyrrolidine]", "values": [{"measurement": "inhibition of saporin-L1 (in words)", "setting": "saporin-L1 [7]", "value": "not an inhibitor; also recorded: poor inhibitor"}, {"measurement": "Ki", "setting": "saporin-L1 [7]; read-out: Ki (no slow onset observed)", "value": "> 500000", "unit": "nM"}]}]}
